# Experimental data taken from patent US9938286B2, “Nalmefene salts as medicaments for reducing alcohol consumption or for preventing excessive alcohol consumption” (H. Lundbeck A/S, priority 2013, dated 2018).
# Counter-ions that a name gives are not always drawn. Like-named read-outs stand apart in the source and are kept apart here.
# What was measured:
# [1] = Dynamic vapour sorption (DVS), water absorption; assay type: physicochemical
# Description: Dynamic vapour sorption experiments were performed using a SMS DVS advantage 01 changing the relative humidity from 30-40% RH up to 90-95% RH in steps of 10%RH.
# [2] = Attempt to form hydrates: precipitation from pure water, XRPD of precipitate; assay type: physicochemical; settings: precipitated from pure water at room temperature and atmospheric pressure
# Source text: A “hydrate” indicates a crystalline material with water (H2O) molecules incorporated into the crystal lattice. More particularly, a “non-hydrate forming salt” of nalmefene indicates a salt of which any isolated crystal form contains less than 25 mol % water, such as less than 20 mol % water, such as less than 15 mol % water, such as less than 10 mol % water, such as less than 5 mol % water, such as less than 4, 3, 2 or 1 mol % water, such as substantially no water in the crystal lattice of said salt.
# [3] = Attempt to form solvates: precipitation from organic solvents, XRPD of precipitate; assay type: physicochemical; settings: for solvate formation from the organic solvents assessed: EtOH, MeOH, IPA, EtOAc, acetone, ACN, THF, MIBK, toluene and 2.2.2-trifluoroethanol, room temperature, atmospheric pressure; for solvate formation from EtOH: precipitated from EtOH
# Source text: A “solvate” indicates a crystalline material with solvent molecules incorporated into the crystal lattice. In the present context, when referring to “solvents” these are limited to non-aqueous solvents, preferably organic solvents. Solvents assessed for solvate formation according to the invention includes the following: ethanol (EtOH), methanol (MeOH), isopropanol (IPA), ethyl acetate (EtOAc), acetone, acetonitrile (ACN), tetrahydrofurane (THF), methyl isobutyl ketone (MIBK), toluene and 2,2,2-trifluoroethanol.
# The clear supernatant was diluted and assayed by HPLC. All precipitates were analyzed by XRPD.
# [4] = Thermodynamic aqueous solubility in pure water (shaking, HPLC); settings: for pH: aqueous solubility sample in pure water; for pH / Solubility (mg base/mL), aqueous: 23° C. ± 2°; for Solubility (mg base/mL), aqueous: pure water, normalised to nalmefene free base
# [5] = Solubility in organic solvents (HPLC); settings: 23° C. ± 2°
# Description: The suspensions were heated with the purpose of obtaining complete dissolution and then cooled to room temperature and left for equilibrium to be attained. The clear supernatant was diluted and assayed by HPLC. All precipitates were analyzed by XRPD.
# For comparison, the solvate formation from nalmefene hydrochloride was also investigated.
# [6] = Brittain 1996, WO 2010/063292, cited from earlier work
# [7] = precipitated/crystallized from ethanol, Brittain 1996, cited from earlier work
# μ receptor = μ receptor (Homo sapiens, UniProt P35372); settings: in vitro studies; cited from earlier work
# δ receptor = δ receptor (Homo sapiens, UniProt P41143); settings: in vitro studies; cited from earlier work
# κ receptor = κ receptor (Homo sapiens, UniProt P41145); settings: in vitro studies; cited from earlier work
# κ receptor, sequence (P41145 whole entry): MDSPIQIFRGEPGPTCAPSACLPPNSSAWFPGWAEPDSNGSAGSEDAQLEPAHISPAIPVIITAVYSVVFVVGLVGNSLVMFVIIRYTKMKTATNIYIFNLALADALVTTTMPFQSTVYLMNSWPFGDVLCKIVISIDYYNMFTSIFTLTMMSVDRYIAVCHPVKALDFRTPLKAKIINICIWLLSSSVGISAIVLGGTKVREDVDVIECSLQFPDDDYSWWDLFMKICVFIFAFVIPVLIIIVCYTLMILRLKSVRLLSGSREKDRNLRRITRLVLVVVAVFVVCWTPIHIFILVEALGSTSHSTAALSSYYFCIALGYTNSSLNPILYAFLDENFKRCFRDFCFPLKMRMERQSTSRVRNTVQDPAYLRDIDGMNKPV
# δ receptor, sequence (P41143 whole entry): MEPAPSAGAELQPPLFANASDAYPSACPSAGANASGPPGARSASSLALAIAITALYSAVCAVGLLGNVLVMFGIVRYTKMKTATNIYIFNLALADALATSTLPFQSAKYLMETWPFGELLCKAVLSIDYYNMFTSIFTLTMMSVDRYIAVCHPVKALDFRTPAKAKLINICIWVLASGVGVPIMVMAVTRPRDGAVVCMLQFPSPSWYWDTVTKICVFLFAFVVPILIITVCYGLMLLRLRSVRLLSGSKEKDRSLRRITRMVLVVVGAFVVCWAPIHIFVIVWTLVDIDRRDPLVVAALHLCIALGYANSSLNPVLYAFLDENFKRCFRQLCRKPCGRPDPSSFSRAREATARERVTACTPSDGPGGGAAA
# μ receptor, sequence (P35372 whole entry): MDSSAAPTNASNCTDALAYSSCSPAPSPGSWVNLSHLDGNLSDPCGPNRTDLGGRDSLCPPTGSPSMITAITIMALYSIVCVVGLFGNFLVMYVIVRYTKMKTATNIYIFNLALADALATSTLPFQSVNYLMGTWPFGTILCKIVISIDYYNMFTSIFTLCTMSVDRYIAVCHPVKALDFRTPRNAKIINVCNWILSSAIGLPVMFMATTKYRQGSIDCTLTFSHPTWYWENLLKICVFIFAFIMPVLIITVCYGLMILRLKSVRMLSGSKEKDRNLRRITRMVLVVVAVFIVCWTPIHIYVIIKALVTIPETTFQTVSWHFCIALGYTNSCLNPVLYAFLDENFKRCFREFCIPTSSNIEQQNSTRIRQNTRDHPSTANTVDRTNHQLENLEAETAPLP
molecule,measurement,setting,value
C=C1CC[C@@]2(O)[C@H]3Cc4ccc(O)c5c4[C@@]2(CCN3CC2CC2)[C@H]1O5.O=C(O)/C=C/C(=O)O,% abs. at 90% RH (water absorption determined by DVS),[1],0.6%
same,hydrate formation,[2],not to form hydrates
same,"solvate formation from 2,2,2-trifluoroethanol","[3]; precipitated from 2,2,2-trifluoroethanol",formed solvate
C=C1CC[C@@]2(O)[C@H]3Cc4ccc(O)c5c4[C@@]2(CCN3CC2CC2)[C@H]1O5.O=C(O)CCCCC(=O)O,% abs. at 90% RH (water absorption determined by DVS),[1],0.35%
same,hydrate formation,[2],not to form hydrates
same,solvate formation from the organic solvents assessed,[3],No solvates were formed
C=C1CC[C@@]2(O)[C@H]3Cc4ccc(O)c5c4[C@@]2(CCN3CC2CC2)[C@H]1O5.O=C(O)CC(=O)O,% abs. at 90% RH (water absorption determined by DVS),[1],0.35%
same,hydrate formation,[2],not to form hydrates
same,solvate formation from MeOH,[3]; precipitated from MeOH,formed solvate
C1=Cc2cccc(OC[C@H]3CNCCO3)c2C1.O=S(=O)(O)c1ccccc1 [Benzene sulfonate],% abs. at 90% RH (water absorption determined by DVS),[1],<0.2%
same,hydrate formation,[2],not to form hydrates
same,solvate formation from EtOH,[3],solvate
same,solvate formation from EtOH,[3]; listed as benzene sulfonate salt,formed solvate
same,solvate formation from THF,[3]; precipitated from THF,formed solvate
same,pH,[4],3.12
C=C1CC[C@@]2(O)[C@H]3Cc4ccc(O)c5c4[C@@]2(CCN3CC2CC2)[C@H]1O5.O=C(O)/C=C\C(=O)O [Hydrogen maleate],% abs. at 90% RH (water absorption determined by DVS),[1],0.2%
same,hydrate formation,[2],not to form hydrates
same,solvate formation from the organic solvents assessed,[3],No solvates were formed
O=C(O)c1ccccc1O [Salicylate],% abs. at 90% RH (water absorption determined by DVS),[1],0.4%
same,hydrate formation,[2],not to form hydrates
same,"Solubility in 2,2,2-trifluoro-EtOH","[5]; 2,2,2-trifluoroethanol, * = precipitated as solvate",120 mg base/mL
same,Solubility in ACN,[5]; ACN,8.2 mg base/mL
same,Solubility in EtOAc,[5]; EtOAc,2.0 mg base/mL
same,Solubility in EtOH,"[5]; EtOH, * = precipitated as solvate",19 mg base/mL
same,Solubility in IPA,"[5]; IPA, * = precipitated as solvate",0.5* mg base/mL
same,Solubility in MIBK,[5]; MIBK,2.9 mg base/mL
same,Solubility in MeOH,"[5]; MeOH, * = precipitated as solvate",91 mg base/mL
same,Solubility in THF,[5]; THF,35 mg base/mL
same,Solubility in acetone,[5]; acetone,9.7 mg base/mL
same,solvate formation from IPA,[3]; precipitated from IPA,formed solvate
same,pH,[4],7.14
same,"Solubility (mg base/mL), aqueous",[4],3.0 mg base/mL
same,"Solubility (mg base/mL), aqueous",[4]; listed as salicylate salt,3 mg base/mL
C=C1CC[C@@]2(O)[C@H]3Cc4ccc(O)c5c4[C@@]2(CCN3CC2CC2)[C@H]1O5 [nalmefene hydrochloride],solvate formation from the organic solvents assessed,[3]; listed as hydrochloride salt,formed solvate from all the organic solvents
same,hydrate formation / thermodynamically stable form (literature),[6]; listed as HCl salt of nalmefene,only thermodynamically stable in hydrated or solvated form
same,hydrate formation / thermodynamically stable form (literature),[6]; listed as nalmefene hydrochloride salt,hydrate-forming salt
same,solvate formation from ethanol (literature),[7],form solvate
same,solvate formation from ethanol (literature),[7]; listed as Nalmefene hydrochloride,ethanol solvate
same,aqueous solubility of the known hydrochloride salt,[4]; unpublished data,109 mg base/mL
"C=C1CC[C@@]2(O)[C@H]3Cc4ccc(O)c5c4[C@@]2(CCN3CC2CC2)[C@H]1O5 [nalmefene, 17-(cyclopropylmethyl)-4,5-alpha-epoxy-6-methylenemorphinan-3,14-diol]",activity at the μ receptor,μ receptor,antagonist activity
same,activity at the δ receptor,δ receptor,antagonist activity
same,activity at the κ receptor,κ receptor,partial agonist activity
L-lactate,% abs. at 90% RH (water absorption determined by DVS),[1],1.2%
same,hydrate formation,[2],corresponds to a monohydrate
same,solvate formation from the organic solvents assessed,[3],No solvates were formed
